Assay results reported in a compilation of properties of binary mixtures (doi:10.1016/j.fluid.2020.112621).

Test: xn = mol fraction of the nth substance listed
Conditions: 101 kPa

CCCCC(=O)[O-].CC[NH+](CC)CCO + CCCC[n+]1ccn(C)c1.COP(=O)([O-])OC
viscosity [mPa·s]
Conditions	x1 = 0.1018	x1 = 0.1952	x1 = 0.3029	x1 = 0.4003	x1 = 0.4973	x1 = 0.5989	x1 = 0.6984	x1 = 0.7978	x1 = 0.8868	x1 = 1
278.15 K	2088	1185.7	676	440	318.2	250.8	–	190.6	171.4	156.6
283.15 K	1327.5	786	464	309	–	180.3	156.2	137.6	123.9	113.1
288.15 K	–	536	327.1	222.5	165.5	132.6	115	101.5	91.4	83.2
293.15 K	–	376	236.3	163.8	123.3	99.4	86.4	76.3	68.8	62.4
298.15 K	416	–	174.8	123.2	93.8	–	66.1	–	52.75	47.75
303.15 K	298.4	–	–	94.6	72.7	59.21	51.52	45.65	41.15	–
308.15 K	219.3	–	101.6	73.8	57.24	–	40.78	36.17	32.59	29.31
313.15 K	164.7	115.4	–	–	45.77	–	32.76	29.07	–	23.48
318.15 K	126	–	63.2	–	37.12	–	–	23.66	21.33	19.07
323.15 K	98.1	71.4	50.96	38.46	30.5	25.23	21.99	–	17.59	15.68
328.15 K	77.7	57.48	41.66	31.79	–	–	–	16.26	14.66	13.03
333.15 K	–	46.87	–	–	21.3	17.73	15.45	13.7	–	–
338.15 K	50.75	–	28.83	22.42	–	–	13.14	11.64	10.49	9.27
343.15 K	41.81	32.29	24.35	–	–	12.94	–	9.98	8.99	7.91
348.15 K	34.84	27.23	20.77	16.43	13.36	–	9.74	8.63	7.76	6.81
353.15 K	29.34	23.18	17.87	14.23	11.63	–	8.48	7.51	6.75	5.9
358.15 K	24.95	19.9	15.5	12.43	10.19	8.56	7.44	6.58	–	–
363.15 K	–	17.23	13.54	10.92	8.99	7.56	–	5.81	5.2	4.52
368.15 K	18.52	15.03	11.92	9.66	7.98	6.72	5.83	5.15	4.61	3.99
373.15 K	16.15	13.21	10.55	–	7.12	6	5.2	4.59	4.1	–

CCCCCC(=O)O.CCCCCC(=O)[O-].CC[NH+](CC)CCO + CCCC[n+]1ccn(C)c1.COP(=O)([O-])OC
viscosity [mPa·s]
Conditions	x1 = 0.0684	x1 = 0.1429	x1 = 0.2213	x1 = 0.3088	x1 = 0.3966	x1 = 0.4995	x1 = 0.6088	x1 = 0.7258	x1 = 0.8535	x1 = 1
278.15 K	2021	1198.1	–	529	412	343	–	255.9	217.2	179
283.15 K	–	787	520	365	288.7	–	211.6	–	159	132.6
288.15 K	841	535	–	–	207.7	176.1	155.1	137.2	118.9	–
293.15 K	570	374	259.3	189.1	152.9	–	116	103.5	–	76.9
298.15 K	398	268.2	–	–	114.9	98.9	88.5	79.5	70.1	60
303.15 K	285.4	197.1	–	107	88.1	76.3	–	62.1	55.1	–
308.15 K	209.4	–	108.8	82.8	68.7	59.9	54.11	49.21	43.94	38.14
313.15 K	–	113.2	84.6	–	54.51	47.69	43.28	39.55	35.51	31
318.15 K	120	88.2	66.9	52.14	–	38.54	35.09	32.2	–	25.48
323.15 K	93.3	69.8	53.69	42.29	–	31.55	28.81	26.52	24.02	21.16
328.15 K	73.8	56.08	43.7	34.74	29.57	–	23.92	22.08	20.07	–
333.15 K	59.25	45.69	36.01	28.88	24.7	21.89	20.08	18.56	16.93	15.02
338.15 K	–	37.68	–	24.28	20.85	18.53	17.01	15.76	14.4	–
343.15 K	–	31.44	–	–	17.77	15.82	14.54	13.48	12.35	11.01
348.15 K	33.12	26.52	21.54	17.66	15.28	13.63	12.53	11.63	10.67	–
353.15 K	27.9	22.58	–	15.27	13.25	–	10.89	–	9.27	–
358.15 K	23.74	19.41	–	13.3	11.58	10.34	9.52	8.84	8.11	–
363.15 K	20.39	16.82	13.98	11.67	10.19	9.1	8.38	7.77	7.13	6.36
368.15 K	17.66	14.68	12.3	10.31	–	8.06	7.42	6.87	6.3	5.61
373.15 K	15.41	12.91	–	9.17	8.04	7.18	6.6	6.11	5.59	4.96

CCCC[n+]1ccn(C)c1.COP(=O)([O-])OC + CCC(=O)O.CCC(=O)[O-].CC[NH+](CC)CCO
x2 = 0
Conditions	viscosity [mPa·s]
278.15 K	3503
288.15 K	1361.1
293.15 K	895
298.15 K	609
303.15 K	426
308.15 K	305.8
313.15 K	224.9
318.15 K	168.9
323.15 K	129.4
333.15 K	79.9
338.15 K	64.25
348.15 K	43.18
353.15 K	36.02
358.15 K	30.38
363.15 K	25.86
368.15 K	22.22
